# In patent US11339130B1 (Blade Therapeutics, Inc., priority 2016, dated 2022):
# Read-outs that look alike come from different tables or passages of the source.
# Legend:
# [1] = tested on: Calpain activity in SH-SY5Y cells (SBDP-150); assay: SH-SY5Y Spectrin western blot assay (SBDP-150 breakdown product, A23187-induced); assay type: cell-based; conditions: Homo sapiens, read-out: SH-SY5Y Spectrin IC50
# Human Calpain 2/NS1 = target: T1, Human Calpain 2/NS1 (Homo sapiens, UniProt P17655); assay: Calpain inhibition continuous fluorescence (FRET) assay, Human Calpain 2/NS1; assay type: biochemical; conditions: Column B; read-out: Human Calpain 2/NS1 IC50
# T1 sequence (P17655 1-700): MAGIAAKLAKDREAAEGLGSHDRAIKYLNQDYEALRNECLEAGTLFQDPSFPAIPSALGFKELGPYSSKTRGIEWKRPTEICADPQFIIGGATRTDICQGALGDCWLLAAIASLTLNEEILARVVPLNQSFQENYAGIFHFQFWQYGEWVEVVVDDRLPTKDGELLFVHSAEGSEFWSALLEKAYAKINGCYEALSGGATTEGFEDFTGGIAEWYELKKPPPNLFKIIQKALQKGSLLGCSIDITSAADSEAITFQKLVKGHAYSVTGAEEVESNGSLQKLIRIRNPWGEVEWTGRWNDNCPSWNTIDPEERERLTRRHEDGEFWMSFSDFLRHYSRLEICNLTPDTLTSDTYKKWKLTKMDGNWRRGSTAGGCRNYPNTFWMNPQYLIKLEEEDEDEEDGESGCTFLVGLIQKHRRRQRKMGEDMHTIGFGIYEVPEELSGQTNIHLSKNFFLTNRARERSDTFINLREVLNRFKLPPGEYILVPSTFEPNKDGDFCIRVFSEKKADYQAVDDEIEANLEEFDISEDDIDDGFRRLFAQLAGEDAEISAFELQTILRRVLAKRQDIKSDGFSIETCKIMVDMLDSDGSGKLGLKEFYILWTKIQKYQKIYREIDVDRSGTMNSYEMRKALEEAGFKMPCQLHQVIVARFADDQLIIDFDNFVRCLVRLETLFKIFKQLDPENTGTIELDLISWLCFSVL
# T1 sequence (P04632 1-268 partner): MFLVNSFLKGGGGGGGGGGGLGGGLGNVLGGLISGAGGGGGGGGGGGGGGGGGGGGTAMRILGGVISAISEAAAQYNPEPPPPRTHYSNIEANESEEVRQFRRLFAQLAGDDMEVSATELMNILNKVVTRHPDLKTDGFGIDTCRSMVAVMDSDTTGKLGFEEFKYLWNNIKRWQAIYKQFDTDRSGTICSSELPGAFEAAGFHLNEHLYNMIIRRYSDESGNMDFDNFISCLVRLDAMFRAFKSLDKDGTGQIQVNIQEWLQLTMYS
# In short: (§1)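 Continuous FRET read (ex 490/em 520 nm, 10 min) of calpain 1, 2 or 9 cleaving an internally quenched 5-FAM peptide, triggered by substrate with CaCl2 after enzyme–inhibitor incubation at ambient 25 °C, pH 7.5 Tris/NaCl/DTT buffer. IC50 from initial rates (1-5 min) via 4-parameter fit.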
# [2] = tested on: Calpain activity in SH-SY5Y cells; assay: SH-SY5Y + AMC fluorescence assay (Suc-LLVY-AMC substrate); assay type: cell-based
# Human Calpain 1/NS1 = target: T2, Human Calpain 1/NS1 (Homo sapiens, UniProt P07384); assay: Calpain inhibition continuous fluorescence (FRET) assay, Human Calpain 1/NS1; assay type: biochemical; conditions: Column A; read-out: Human Calpain 1/NS1 IC50
# T2 sequence (P07384 1-714): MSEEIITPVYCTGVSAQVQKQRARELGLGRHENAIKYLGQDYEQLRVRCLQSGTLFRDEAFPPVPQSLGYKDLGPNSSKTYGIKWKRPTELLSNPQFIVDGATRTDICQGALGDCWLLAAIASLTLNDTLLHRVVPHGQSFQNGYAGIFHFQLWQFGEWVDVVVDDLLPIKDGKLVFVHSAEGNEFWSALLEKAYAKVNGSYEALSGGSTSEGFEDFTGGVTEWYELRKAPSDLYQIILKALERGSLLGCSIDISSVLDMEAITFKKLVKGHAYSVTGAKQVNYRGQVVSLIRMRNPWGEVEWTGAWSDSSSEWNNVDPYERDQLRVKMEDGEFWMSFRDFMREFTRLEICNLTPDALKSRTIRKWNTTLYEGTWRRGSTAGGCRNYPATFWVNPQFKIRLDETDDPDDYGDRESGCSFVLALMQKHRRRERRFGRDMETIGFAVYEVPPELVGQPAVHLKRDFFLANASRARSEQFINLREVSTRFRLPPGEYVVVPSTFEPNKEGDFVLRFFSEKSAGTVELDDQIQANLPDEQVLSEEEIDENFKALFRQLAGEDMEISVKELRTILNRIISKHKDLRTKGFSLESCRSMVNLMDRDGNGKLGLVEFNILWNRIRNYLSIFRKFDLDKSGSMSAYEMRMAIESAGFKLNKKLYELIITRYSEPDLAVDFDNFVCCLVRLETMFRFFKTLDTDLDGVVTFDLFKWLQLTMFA
# T2 sequence (P04632 1-268 partner): T1 sequence (P04632 1-268 partner)
# In short: as §1
# Human Calpain 9/NS1 = target: T3, Human Calpain 9/NS1 (Homo sapiens, UniProt O14815); assay: Calpain inhibition continuous fluorescence (FRET) assay, Human Calpain 9/NS1; assay type: biochemical; conditions: Column C; read-out: Human Calpain 9/NS1 IC50
# T3 sequence (O14815 1-690): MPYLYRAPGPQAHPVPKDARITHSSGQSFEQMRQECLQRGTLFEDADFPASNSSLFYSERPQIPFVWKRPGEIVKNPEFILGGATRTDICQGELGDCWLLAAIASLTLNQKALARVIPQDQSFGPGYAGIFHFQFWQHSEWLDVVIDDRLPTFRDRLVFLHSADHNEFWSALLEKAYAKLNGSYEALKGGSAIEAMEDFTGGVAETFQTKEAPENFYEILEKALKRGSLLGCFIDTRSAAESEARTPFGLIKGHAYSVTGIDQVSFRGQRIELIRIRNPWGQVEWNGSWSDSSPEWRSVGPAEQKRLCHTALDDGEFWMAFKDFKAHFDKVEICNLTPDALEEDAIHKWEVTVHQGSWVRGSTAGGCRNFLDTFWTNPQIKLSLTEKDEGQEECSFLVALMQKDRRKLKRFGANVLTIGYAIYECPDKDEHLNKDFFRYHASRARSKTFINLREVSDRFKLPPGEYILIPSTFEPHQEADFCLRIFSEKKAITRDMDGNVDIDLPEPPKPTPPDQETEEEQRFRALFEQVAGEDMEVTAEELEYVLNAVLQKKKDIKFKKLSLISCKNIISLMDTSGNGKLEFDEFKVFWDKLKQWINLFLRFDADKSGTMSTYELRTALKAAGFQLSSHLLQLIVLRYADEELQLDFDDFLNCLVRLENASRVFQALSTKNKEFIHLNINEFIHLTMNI
# T3 sequence (P04632 1-268 partner): T1 sequence (P04632 1-268 partner)
# In short: as §1
# [3] = Column D, SH-SY5Y cells, A23187-induced SBDP-150
# [4] = Column E, read-out: SH-SY5Y + AMC IC50
# [5] = read-out: SH-SY5Y + AMC IC50, Column E
"IC50 [1, 3] [µM]",IC50 (Human Calpain 2/NS1) [µM],"IC50 [2, 4] [µM]",IC50 (Human Calpain 1/NS1) [µM],IC50 (Human Calpain 9/NS1) [µM],Structure (SMILES),IC50 ([1]; SH-SY5Y) [µM],"IC50 [2, 5] [µM]"
< 10,< 3,> 25,< 3,< 3,"Cc1cc(C(=O)N[C@@H](Cc2ccccc2)C(=O)C(N)=O)c(-c2ccccc2)o1 [Compound 118, (S)—N-(4-amino-3,4-dioxo-1-phenylbutan-2-yl)-5-methyl-2-phenylfuran-3-carboxamide]",,
< 10,< 3,10 to 25,< 3,< 3,"Cc1ccc(-n2nc(C)cc2C(=O)N[C@@H](Cc2ccccc2)C(=O)C(N)=O)nc1 [Compound 120, (S)—N-(4-amino-3,4-dioxo-1-phenylbutan-2-yl)-3-methyl-1-(5-methylpyridin-2-yl)-1H-pyrazole-5-carboxamide]",,
< 10,< 3,> 25,< 3,< 3,"Cc1cc(C(=O)N[C@@H](Cc2ccccc2)C(=O)C(N)=O)n(-c2ccc(-c3ccc(F)cc3)cc2)n1 [Compound 126, (S)—N-(4-amino-3,4-dioxo-1-phenylbutan-2-yl)-1-(4′-fluoro-[1,1′-biphenyl]-4-yl)-3-methyl-1H-pyrazole-5-carboxamide]",,
< 10,< 3,> 25,< 3,< 3,Cc1ccc(-c2ccc(-n3nc(C)cc3C(=O)N[C@@H](Cc3ccccc3)C(=O)C(N)=O)cc2)cc1 [Compound 130],,
10 to 25,< 3,> 25,< 3,< 3,"Cc1cc(C(=O)N[C@@H](Cc2ccccc2)C(=O)C(N)=O)n(-c2ccc(COc3ccccc3)cc2)n1 [Compound 131, (S)—N-(4-amino-3,4-dioxo-1-phenylbutan-2-yl)-3-methyl-1-(4-(phenoxymethyl)phenyl)-1H-pyrazole-5-carboxamide]",,
10 to 25,< 3,10 to 25,< 3,< 3,"Cc1cc(C(=O)N[C@@H](Cc2ccccc2)C(=O)C(N)=O)n(-c2cccnc2)n1 [Compound 136, (S)—N-(4-amino-3,4-dioxo-1-phenylbutan-2-yl)-3-methyl-1-(pyridin-3-yl)-1H-pyrazole-5-carboxamide]",,
10 to 25,< 3,< 10,< 3,< 3,"Cc1cc(C(=O)N[C@@H](Cc2ccccc2)C(=O)C(N)=O)n(-c2cccc(CNC(=O)CCc3ccccc3)c2)n1 [Compound 142, (S)—N-(4-amino-3,4-dioxo-1-phenylbutan-2-yl)-3-methyl-1-(3-((3-phenylpropanamido)methyl)phenyl)-1H-pyrazole-5-carboxamide]",,
10 to 25,< 3,< 10,< 3,< 3,"CC(=O)NCc1cccc(-n2nc(C)cc2C(=O)N[C@@H](Cc2ccccc2)C(=O)C(N)=O)c1 [Compound 143, (S)-1-(3-(acetamidomethyl)phenyl)-N-(4-amino-3,4-dioxo-1-phenylbutan-2-yl)-3-methyl-1H-pyrazole-5-carboxamide]",,
< 10,< 3,< 10,< 3,< 3,"Cc1cc(C(=O)N[C@@H](Cc2ccccc2)C(=O)C(N)=O)n(-c2cccc(CNC(=O)Cc3ccccc3)c2)n1 [Compound 144, (S)—N-(4-amino-3,4-dioxo-1-phenylbutan-2-yl)-3-methyl-1-(3-((2-phenylacetamido)methyl)phenyl)-1H-pyrazole-5-carboxamide]",,
< 10,< 3,< 10,< 3,< 3,"Cc1cc(C(=O)N[C@@H](Cc2ccccc2)C(=O)C(N)=O)n(-c2cccc(CNS(=O)(=O)c3ccccc3)c2)n1 [Compound 145, (S)—N-(4-amino-3,4-dioxo-1-phenylbutan-2-yl)-3-methyl-1-(3-(phenylsulfonamidomethyl)phenyl)-1H-pyrazole-5-carboxamide]",,
10 to 25,< 3,< 10,< 3,< 3,"Cc1cc(C(=O)N[C@@H](Cc2ccccc2)C(=O)C(N)=O)n(-c2cccc(CNCc3ccccc3)c2)n1 [Compound 146, (S)—N-(4-amino-3,4-dioxo-1-phenylbutan-2-yl)-1-(3-((benzylamino)methyl)phenyl)-3-methyl-1H-pyrazole-5-carboxamide]",,
10 to 25,< 3,> 25,< 3,< 3,"Cc1cc(C(=O)N[C@@H](Cc2ccccc2)C(=O)C(N)=O)n(-c2ccc(CNC(=O)c3ccccc3)cc2)n1 [Compound 154, (S)—N-(4-amino-3,4-dioxo-1-phenylbutan-2-yl)-1-(4-(benzamidomethyl)phenyl)-3-methyl-1H-pyrazole-5-carboxamide]",,

Structure (SMILES),"IC50 [1, 3] [µM]",IC50 (Human Calpain 2/NS1) [µM],"IC50 [2, 4] [µM]",IC50 (Human Calpain 1/NS1) [µM],IC50 (Human Calpain 9/NS1) [µM],IC50 ([1]; SH-SY5Y) [µM],"IC50 [2, 5] [µM]"
"CCOC(=O)NCc1cccc(-n2nc(C)cc2C(=O)N[C@@H](Cc2ccccc2)C(=O)C(N)=O)c1 [Compound 147, Ethyl (S)-(3-(5-((4-amino-3,4-dioxo-1-phenylbutan-2-yl)carbamoyl)-3-methyl-1H-pyrazol-1-yl)benzyl)carbamate]",,< 3,,< 3,< 3,10 to 25,10 to 25
"Cc1cc(C(=O)N[C@@H](Cc2ccccc2)C(=O)C(N)=O)n(-c2ccc(CNC(=O)OCc3ccccc3)cc2)n1 [Compound 153, Benzyl (S)-(4-(5-((4-amino-3,4-dioxo-1-phenylbutan-2-yl)carbamoyl)-3-methyl-1H-pyrazol-1-yl)benzyl)carbamate]",,< 3,,< 3,< 3,< 10,> 25
